Measurements reported in patent publication US20090023696A1, “USE OF C3-C10 17ALFA-ESTERS OF 9,11-DEHYDROCORTEXOLONE AS ANTI-GONADOTROPHIC AGENTS” (COSMO BIO-TECHNOLOGIES SRL, priority 2005, published 2009).
Several values for one entry are separate records, joined by “and”; a condition that tells them apart may be missing. Equal values may be shown once. Entries after “also recorded” stand apart in the source; their conditions may differ. Marks after values point to notes of the source that are not given here.

System: hypersecretion of gonadotrophin in the parabiotic rat
Assay: Hypersecretion of gonadotrophin induced by castration in parabiotic rats (ovarian weight)
Type: in vivo, Wistar rats
Conditions: for Inhibition of ovarian weight (%): subcutaneously into castrated males; for anti-gonadotrophic effect (inhibitory effect on gonadotrophin secretion), in words: overall conclusion from Table 1
Experimental: The anti-gonadotrophic action was evaluated in an animal model by evaluation of the hypersecretion of the gonads induced by castration in parabiotic rats (Shipley E. G., in: Methods in Hormone Research, R. L Dorfman (ed.), vol. 2, pp 179-274. Academic Press, New York and London, 1962). The results of the inhibitory action of […] 17α-butyrate on the gonads are shown below in Table 1. Wistar rats of both sexes with body weights of 50-60 g were used. The males were castrated and, on the next day, were surgically united along the lateral body wall with intact females (parabiosis). In this experimental procedure, the castration of the males induces in them an immediate hypersecretion of gonadotrophin, which, on reaching the female via the parabiotic union, stimulates ovarian growth. […] Progesterone was used as a positive control and was administered by the same procedure, in doses of 0.5 and 2 mg. Additional groups of pairs including intact males/intact females and castrated males/intact females were treated with the vehicle only and used as a control. At the end of the treatment period, the pairs were killed and autopsies performed. The ovaries and uteruses of each female rate were isolated and weighed. The inhibitory action causing hypersecretion of gonadotrophin due to castration was evaluated via the capacity of the tested compound to oppose the increase of weight of the ovaries.

Row | Structure (SMILES) | Inhibition of ovarian weight (%) (daily dose 1 mg) | Inhibition of ovarian weight (%) (daily dose 5 mg) | anti-gonadotrophic effect (inhibitory effect on gonadotrophin secretion), in words | Inhibition of ovarian weight (%) (daily dose 0.5 mg) | Inhibition of ovarian weight (%) (daily dose 2 mg)
1 | CCCC(=O)O[C@]1(C(=O)CO)CCC2C3CCC4=CC(=O)CCC4(C)C3=CCC21C (stereo partly drawn) [9,11-dehydrocortexolone 17α-butyrate] | 59% and 59^a % | 96% and 96^a % | strong and significant dose-correlated inhibitory effect on gonadotrophin secretion; also recorded: comparable to that shown by comparable doses of progesterone |  | 
2 | CCC(=O)O[C@]1(C(=O)CO)CC[C@H]2[C@@H]3CCC4=CC(=O)CC[C@]4(C)[C@H]3CC[C@@]21C [cortexolone 17α-propionate, reference compound] | 5% | 5% | no anti-gonadotrophic action at all |  | 
3 | CC(=O)[C@H]1CC[C@H]2[C@@H]3CCC4=CC(=O)CC[C@]4(C)[C@H]3CC[C@]12C [progesterone, reference compound] |  |  |  | 38^b % | 66^a %
